Measured values published in paper PMC6321601 (Molecules, 2018).

How the values were obtained:
[1] = tested on: HepG-2 human hepatocellular carcinoma cells; assay: MTT assay, proliferation of HepG-2 cells; assay type: cell-based; settings: Homo sapiens, HepG2, 72 h incubation, mean of three independent experiments
Experimental: (§1) HepG-2 human hepatocellular carcinoma cells and L-O2 human normal liver cells were maintained in DMEM culture medium supplemented with 10% FBS at 37 °C under a humidified atmosphere with 5% CO2.
(§2) HepG-2 and L-O2 cells in logarithmic growth phase were seeded into a 96-well plate at 5 × 10^3/well/200 µL. After 12 h, compounds at different concentrations were added and incubated for 72 h at 37 °C, 5% CO2. Then, 20 µL MTT (5 mg/mL) was added into each well and incubated for 4 h. The supernatant was discarded, and the precipitate was dissolved with DMSO. The absorbance of the optical density (OD) at 570 nm was detected using a microplate reader and the IC50 was calculated with GraphPad Prism 5.

[2] = tested on: L-O2 human normal liver cells; assay: MTT assay, toxicity against L-O2 normal cells; assay type: cell-based; settings: Homo sapiens, 72 h incubation, mean of three independent experiments
Experimental: as §1, §2

SMILES	IC50 [1] [µM]	IC50 [2] [nM]
COc1cccc2c1C(=O)c1c(O)c3c(c(O)c1C2=O)C[C@@](O)(C(=O)CO)C[C@@H]3O[C@H]1C[C@H](N)[C@H](O)[C@H](C)O1 [ADR, adriamycin, reference compound]	0.3 ± 0.05	41 ± 13
CCC(=O)O[C@@H]1C[C@@]2(C)C3CC=C4C(C[C@H](O)C(=O)C4(C)C)[C@]3(C)C(=O)C[C@]2(C)C1[C@@](C)(O)C(=O)/C=C/C(C)(C)OC(C)=O (stereo partly drawn) [Compound 3a, (2S,9R,13R,14S,16R)-17-((R,E)-6-Acetoxy-2-hydroxy-6-methyl-3-oxohept-4-en-2-yl)-2-hydroxy-4,4,9,13,14-pentamethyl-3,11-dioxo-2,3,4,7,8,9,10,11,12,13,14,15,16,17-tetradecahydro-1H-cyclopenta[a]phenanthren-16-yl propionate]	1.01 ± 0.04	1020 ± 580
CC(=O)OC(C)(C)/C=C/C(=O)[C@](C)(O)C1[C@H](OC(=O)C2CCC2)C[C@@]2(C)C3CC=C4C(CC(O)C(=O)C4(C)C)[C@]3(C)C(=O)C[C@]12C (stereo partly drawn) [Compound 3b, (9R,13R,14S,16R)-17-((R,E)-6-Acetoxy-2-hydroxy-6-methyl-3-oxohept-4-en-2-yl)-2-hydroxy-4,4,9,13,14-pentamethyl-3,11-dioxo-2,3,4,7,8,9,10,11,12,13,14,15,16,17-tetradecahydro-1H-cyclopenta[a]phenanthren-16-yl cyclobutanecarboxylate]	0.54 ± 0.04	520 ± 80
CC(=O)OC(C)(C)/C=C/C(=O)[C@](C)(O)C1[C@H](OC(=O)C2CCCC2)C[C@@]2(C)C3CC=C4C(C[C@H](O)C(=O)C4(C)C)[C@]3(C)C(=O)C[C@]12C (stereo partly drawn) [Compound 3c, (2S,9R,13R,14S,16R)-17-((R,E)-6-Acetoxy-2-hydroxy-6-methyl-3-oxohept-4-en-2-yl)-2-hydroxy-4,4,9,13,14-pentamethyl-3,11-dioxo-2,3,4,7,8,9,10,11,12,13,14,15,16,17-tetradecahydro-1H-cyclopenta[a]phenanthren-16-yl cyclopentanecarboxylate]	2.45 ± 1.75	2370 ± 90
CC(=O)OC(C)(C)/C=C/C(=O)[C@](C)(O)C1[C@H](OC(=O)CCCCNC(=O)OC(C)(C)C)C[C@@]2(C)C3CC=C4C(C[C@H](O)C(=O)C4(C)C)[C@]3(C)C(=O)C[C@]12C (stereo partly drawn) [Compound 3d, (2S,9R,13R,14S,16R)-17-((R,E)-6-Acetoxy-2-hydroxy-6-methyl-3-oxohept-4-en-2-yl)-2-hydroxy-4,4,9,13,14-pentamethyl-3,11-dioxo-2,3,4,7,8,9,10,11,12,13,14,15,16,17-tetradecahydro-1H-cyclopenta[a]phenanthren-16-yl 5-((tert-butoxycarbonyl)amino)pentanoate]	4.89 ± 0.92	8010 ± 470
CC(=O)OC(C)(C)/C=C/C(=O)[C@](C)(O)C1[C@H](OC(=O)CCCCN(C)C(=O)OC(C)(C)C)C[C@@]2(C)C3CC=C4C(C[C@H](O)C(=O)C4(C)C)[C@]3(C)C(=O)C[C@]12C (stereo partly drawn) [Compound 3e, (2S,9R,13R,14S,16R)-17-((R,E)-6-Acetoxy-2-hydroxy-6-methyl-3-oxohept-4-en-2-yl)-2-hydroxy-4,4,9,13,14-pentamethyl-3,11-dioxo-2,3,4,7,8,9,10,11,12,13,14,15,16,17-tetradecahydro-1H-cyclopenta[a]phenanthren-16-yl 5-((tert-butoxycarbonyl)(methyl)amino)pentanoate]	9.28 ± 0.37	5500 ± 2480
CC(=O)OC(C)(C)/C=C/C(=O)[C@](C)(O)C1[C@H](OC(=O)CCCN(C)C(=O)OC(C)(C)C)C[C@@]2(C)C3CC=C4C(C[C@H](O)C(=O)C4(C)C)[C@]3(C)C(=O)C[C@]12C (stereo partly drawn) [Compound 3f, (2S,9R,13R,14S,16R)-17-((R,E)-6-Acetoxy-2-hydroxy-6-methyl-3-oxohept-4-en-2-yl)-2-hydroxy-4,4,9,13,14-pentamethyl-3,11-dioxo-2,3,4,7,8,9,10,11,12,13,14,15,16,17-tetradecahydro-1H-cyclopenta[a]phenanthren-16-yl 4-((tert-butoxycarbonyl)(methyl)amino)butanoate]	0.93 ± 0.06	410 ± 110
CC(=O)OC(C)(C)/C=C/C(=O)[C@](C)(O)C1[C@H](OC(=O)CCc2ccccc2NC(=O)OC(C)(C)C)C[C@@]2(C)C3CC=C4C(C[C@H](O)C(=O)C4(C)C)[C@]3(C)C(=O)C[C@]12C (stereo partly drawn) [Compound 3g, (2S,9R,13R,14S,16R)-17-((R,E)-6-Acetoxy-2-hydroxy-6-methyl-3-oxohept-4-en-2-yl)-2-hydroxy-4,4,9,13,14-pentamethyl-3,11-dioxo-2,3,4,7,8,9,10,11,12,13,14,15,16,17-tetradecahydro-1H-cyclopenta[a]phenanthren-16-yl 3-(2-((tert-butoxycarbonyl)amino)phenyl)propanoate]	0.22 ± 0.11	42 ± 1
CC(=O)OC(C)(C)/C=C/C(=O)[C@](C)(O)C1[C@H](OC(=O)c2ccc(C)cc2)C[C@@]2(C)C3CC=C4C(C[C@H](O)C(=O)C4(C)C)[C@]3(C)C(=O)C[C@]12C (stereo partly drawn) [Compound 3h, (2S,9R,13R,14S,16R)-17-((R,E)-6-Acetoxy-2-hydroxy-6-methyl-3-oxohept-4-en-2-yl)-2-hydroxy-4,4,9,13,14-pentamethyl-3,11-dioxo-2,3,4,7,8,9,10,11,12,13,14,15,16,17-tetradecahydro-1H-cyclopenta[a]phenanthren-16-yl 4-methylbenzoate]	9.62 ± 1.34	6900 ± 1370
CC(=O)OC(C)(C)/C=C/C(=O)[C@](C)(O)C1[C@H](OC(=O)c2ccc(F)cc2)C[C@@]2(C)C3CC=C4C(C[C@H](O)C(=O)C4(C)C)[C@]3(C)C(=O)C[C@]12C (stereo partly drawn) [Compound 3i, (2S,9R,13R,14S,16R)-17-((R,E)-6-Acetoxy-2-hydroxy-6-methyl-3-oxohept-4-en-2-yl)-2-hydroxy-4,4,9,13,14-pentamethyl-3,11-dioxo-2,3,4,7,8,9,10,11,12,13,14,15,16,17-tetradecahydro-1H-cyclopenta[a]phenanthren-16-yl 4-fluorobenzoate]	7.42 ± 0.4	4420 ± 970
CC(=O)OC(C)(C)/C=C/C(=O)[C@](C)(O)C1[C@H](OC(=O)c2ccc(Cl)cc2)C[C@@]2(C)C3CC=C4C(C[C@H](O)C(=O)C4(C)C)[C@]3(C)C(=O)C[C@]12C (stereo partly drawn) [Compound 3j, (2S,9R,13R,14S,16R)-17-((R,E)-6-Acetoxy-2-hydroxy-6-methyl-3-oxohept-4-en-2-yl)-2-hydroxy-4,4,9,13,14-pentamethyl-3,11-dioxo-2,3,4,7,8,9,10,11,12,13,14,15,16,17-tetradecahydro-1H-cyclopenta[a]phenanthren-16-yl 4-chlorobenzoate]	4.67 ± 0.28	3570 ± 2580
CC(=O)OC(C)(C)/C=C/C(=O)[C@](C)(O)C1[C@H](OC(=O)c2ccc(Br)cc2)C[C@@]2(C)C3CC=C4C(C[C@H](O)C(=O)C4(C)C)[C@]3(C)C(=O)C[C@]12C (stereo partly drawn) [Compound 3k, (2S,9R,13R,14S,16R)-17-((R,E)-6-Acetoxy-2-hydroxy-6-methyl-3-oxohept-4-en-2-yl)-2-hydroxy-4,4,9,13,14-pentamethyl-3,11-dioxo-2,3,4,7,8,9,10,11,12,13,14,15,16,17-tetradecahydro-1H-cyclopenta[a]phenanthren-16-yl 4-bromobenzoate]	2.99 ± 2.06	1930 ± 320
COc1ccc(C(=O)O[C@@H]2C[C@@]3(C)C4CC=C5C(C[C@H](O)C(=O)C5(C)C)[C@]4(C)C(=O)C[C@]3(C)C2[C@@](C)(O)C(=O)/C=C/C(C)(C)OC(C)=O)cc1 (stereo partly drawn) [Compound 3l, (2S,9R,13R,14S,16R)-17-((R,E)-6-Acetoxy-2-hydroxy-6-methyl-3-oxohept-4-en-2-yl)-2-hydroxy-4,4,9,13,14-pentamethyl-3,11-dioxo-2,3,4,7,8,9,10,11,12,13,14,15,16,17-tetradecahydro-1H-cyclopenta[a]phenanthren-16-yl 4-methoxybenzoate]	3.71 ± 1.69	2470 ± 470
CC(=O)OC(C)(C)/C=C/C(=O)[C@](C)(O)C1[C@H](OC(=O)c2ccc([N+](=O)[O-])cc2)C[C@@]2(C)C3CC=C4C(C[C@H](O)C(=O)C4(C)C)[C@]3(C)C(=O)C[C@]12C (stereo partly drawn) [Compound 3m, (2S,9R,13R,14S,16R)-17-((R,E)-6-Acetoxy-2-hydroxy-6-methyl-3-oxohept-4-en-2-yl)-2-hydroxy-4,4,9,13,14-pentamethyl-3,11-dioxo-2,3,4,7,8,9,10,11,12,13,14,15,16,17-tetradecahydro-1H-cyclopenta[a]phenanthren-16-yl 4-nitrobenzoate]	0.92 ± 0.44	740 ± 150
CC(=O)OC(C)(C)/C=C/C(=O)[C@](C)(O)C1[C@H](OC(=O)c2cccc(F)c2)C[C@@]2(C)C3CC=C4C(C[C@H](O)C(=O)C4(C)C)[C@]3(C)C(=O)C[C@]12C (stereo partly drawn) [Compound 3n, (2S,9R,13R,14S,16R)-17-((R,E)-6-Acetoxy-2-hydroxy-6-methyl-3-oxohept-4-en-2-yl)-2-hydroxy-4,4,9,13,14-pentamethyl-3,11-dioxo-2,3,4,7,8,9,10,11,12,13,14,15,16,17-tetradecahydro-1H-cyclopenta[a]phenanthren-16-yl 3-fluorobenzoate]	4.05 ± 1.39	2480 ± 520
CC(=O)OC(C)(C)/C=C/C(=O)[C@](C)(O)C1[C@H](OC(=O)C=Cc2ccccc2)C[C@@]2(C)C3CC=C4C(C[C@H](O)C(=O)C4(C)C)[C@]3(C)C(=O)C[C@]12C (stereo partly drawn) [Compound 3o, (2S,9R,13R,14S,16R)-17-((R,E)-6-Acetoxy-2-hydroxy-6-methyl-3-oxohept-4-en-2-yl)-2-hydroxy-4,4,9,13,14-pentamethyl-3,11-dioxo-2,3,4,7,8,9,10,11,12,13,14,15,16,17-tetradecahydro-1H-cyclopenta[a]phenanthren-16-yl cinnamate]	3.31 ± 0.24	9590 ± 2380
